Reference: patent publication US9216984B2, “3-[4-(7H-pyrrolo[2,3-D]pyrimidin-4-yl)-1H-pyrazol-1-yl]octane—or heptane-nitrile as JAK inhibitors” (Incyte Corporation, priority 2009, dated 2015)
Structures can show the parent of a compound that is named as a salt.

Columns and labels:
[1] = molecular target: human JAK2 (a.a. 828-1132) (Homo sapiens (Human), UniProt O60674); assay: In vitro JAK kinase assay (HTRF, phosphorylation of biotinylated peptide); type: biochemical; conditions: for IC50: at Km ATP (30 μM ATP for Jak2)
Chain of human JAK2 (a.a. 828-1132) (O60674 828-1132): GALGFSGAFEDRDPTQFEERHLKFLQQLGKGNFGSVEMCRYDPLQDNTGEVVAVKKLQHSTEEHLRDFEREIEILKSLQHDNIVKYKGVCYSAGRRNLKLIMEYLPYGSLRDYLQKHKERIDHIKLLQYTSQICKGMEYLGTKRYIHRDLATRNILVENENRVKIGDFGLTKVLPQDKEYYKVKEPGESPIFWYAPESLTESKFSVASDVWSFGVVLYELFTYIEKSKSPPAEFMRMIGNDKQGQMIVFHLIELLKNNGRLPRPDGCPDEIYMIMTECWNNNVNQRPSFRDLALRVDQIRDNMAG
Procedure: (§1) The compounds of the invention were tested for inhibitory activity of JAK targets according to the following in vitro assay described in Park et al., Analytical Biochemistry 1999, 269, 94-104. The catalytic domains of human JAK1 (a.a. 837-1142), JAK2 (a.a. 828-1132) and JAK3 (a.a. 781-1124) with an N-terminal His tag were expressed using baculovirus in insect cells and purified. The catalytic activity of JAK1, JAK2 or JAK3 was assayed by measuring the phosphorylation of a biotinylated peptide. The phosphorylated peptide was detected by homogenous time resolved fluorescence (HTRF). […] The ATP concentration in the reactions was 90 μM for Jak1, 30 μM for Jak2 and 3 μM for Jak3. Reactions were carried out at room temperature for 1 hr and then stopped with 20 μL 45 mM EDTA, 300 nM SA-APC, 6 nM Eu-Py20 in assay buffer (Perkin Elmer, Boston, Mass.). Binding to the Europium labeled antibody took place for 40 minutes and HTRF signal was measured on a Fusion plate reader (Perkin Elmer, Boston, Mass.).

[2] = molecular target: human JAK1 (a.a. 837-1142) (Homo sapiens, UniProt P23458); assay: as above; type: biochemical; conditions: at Km ATP (90 μM ATP for Jak1)
Procedure: as §1

| IC50 [1] | IC50 [2] | JAK2 activity compared with the other form/enantiomer (in words) [1] | SMILES |
| --- | --- | --- | --- |
| 0.3 nM | 0.57 nM | – | CCCCC(CC#N)n1cc(-c2ncnc3[nH]ccc23)cn1 (single isomer, unassigned) [Example 2, second peak (free base), 3-[4-(7H-pyrrolo[2,3-d]pyrimidin-4-yl)-1H-pyrazol-1-yl]heptanenitrile] |
| 0.65 nM | 2 nM | – | CCCCC(CC#N)n1cc(-c2ncnc3[nH]ccc23)cn1 (single isomer, unassigned) [Example 2, second peak (phosphate salt), 3-[4-(7H-pyrrolo[2,3-d]pyrimidin-4-yl)-1H-pyrazol-1-yl]heptanenitrile phosphoric acid salt] |
| 1.4 nM | 1.8 nM | – | CCCCC(CC#N)n1cc(-c2ncnc3[nH]ccc23)cn1 (single isomer, unassigned) [Example 2, first peak (free base), 3-[4-(7H-pyrrolo[2,3-d]pyrimidin-4-yl)-1H-pyrazol-1-yl]heptanenitrile] |
| – | – | similarly active | CCCCCC(CC#N)n1cc(-c2ncnc3[nH]ccc23)cn1.O=P(O)(O)O (single isomer, unassigned) [Example 1, second peak (phosphate salt), 3-[4-(7H-pyrrolo[2,3-d]pyrimidin-4-yl)-1H-pyrazol-1-yl]octanenitrile phosphoric acid salt] |
| – | – | not as potent as the other enantiomer | CCCCCC(CC#N)n1cc(-c2ncnc3[nH]ccc23)cn1 (single isomer, unassigned) [Example 1, first peak (free base), 3-[4-(7H-pyrrolo[2,3-d]pyrimidin-4-yl)-1H-pyrazol-1-yl]octanenitrile] |
